Measured values reported in article PMC6268785, “Inhibition of PCAF Histone Acetyltransferase, Cytotoxicity and Cell Permeability of 2-Acylamino-1-(3- or 4-Carboxy-phenyl)benzamides” (Molecules, 2012).
Like-named read-outs stand apart in the source and are kept apart here.

What was measured:
[1] = tested on: MDA-231 (human breast cancer); assay: SRB cytotoxicity assay, MDA-231; format: cell-based; conditions: read-out: IC50 against MDA-231
Method: (§1) The cell lines used were HSF (normal cell), HT-29 (human colon cancer), HCT-116 (human colon cancer), MDA-231 (human breast cancer), A549 (human lung cancer), Hep3B (human hepatoma cancer), HeLa (human cervical cancer) and Caki (human kidney cancer) supplied from the Korean Cell Line Bank (Daejeon, Korea). Cells were grown as monolayer cultures in the T-175 flasks (Costar), were subcultured twice a week at 37 °C in an atmosphere containing 5% CO2 in air and 100% relative humidity and maintained at low passage number (5 to 20). RPMI medium 1640, Dulbecco’s modified eagle medium (DMEM, Gibco), fetal bovin serum, (FBS, Gibco), penicillin-streptomycin (P-S, Gibco), phosphate buffered saline pH 7.4 (PBS, Gibco), 0.25% trypsin-EDTA (Gibco), 0.4% trypan blue, dimethyl sulfoxide (DMSO) (Sigma-Aldrich), trichloroacetic acid (Sigma-Aldrich) and sulforhodamine B (SRB) (Sigma-Aldrich) were used.
(§2) Adherent cells at the logarithmic growth phase were detached the by an addition of 3 mL of trypsin-EDTA (1:250) mixture, and they were incubated for 5 min at 37 °C. The cells were plated (200 μL per well) in 96 well flat-bottom microplates at densities of 3 × 10^3 cells per well. The cells were plated in sextuplicate (six replicate wells per cell density) and experiments were performed three times. Microplates were left for 6 h at 37 °C, so that the cells were able to attach to the bottom of the wells before the fixation protocol was carried out.
(§3) […]. Then, cold (4 °C) 50% TCA (50 μL) was added to the top of 200 μL culture medium in each well to produce a final TCA concentration of 10%. Microplates were left for 30 min at 4 °C, and subsequently, they were washed five times with deionized water. Microplates were then left to dry at room temperature for at least 24 h.
(§4) The SRB assay was carried out as previously described. In brief, 0.4% (w/v) sulforhodamine B (70 μL) in acetic acid solution were added to each well and left at room temperature for 20 min. SRB was removed and the plates washed five times with 1% acetic acid before air drying. Bound SRB was solubilized with 10 mM unbuffered Tris-base solution (200 μL) and the plates were left on a plate shaker for at least 10 min. Absorbance was read in a 96-well plate reader at 492 nm subtracting the background measurement at 620 nm. The test optical density (OD) value was defined as the absorbance of each individual well, minus the blank value.

[2] = tested on: Caki (human kidney cancer); assay: SRB cytotoxicity assay, Caki; format: cell-based; conditions: mean ± standard error, read-out: IC50 against Caki
Method: as §1, §2, §3, §4

PCAF HAT = target: T1, PCAF HAT (Homo sapiens, UniProt Q92831); assay: PCAF HAT inhibition assay (fluorescent, CPM detection of CoA-SH); format: biochemical; conditions: for inhibition at 100 µM: read-out: PCAF HAT inhibition (%)
T1 construct: purchased Cayman Co., Ann Arbor, MI, USA
Method: The structural analogues were derived from anthranilic acid by introducing the acyl chain at the 2- position, and 3- or 4-carboxyaniline at the 1-position, respectively. The ability of new compounds 8–19 to inhibit HAT activity was analyzed in vitro using PCAF HAT enzymatic kit (Cayman Co., Ann Arbor, MI, USA). Anacardic acid, a commercially available HAT inhibitor, was used as a positive control.
The PCAF HAT inhibition studies were performed using a fluorescent assay as described previously. The enzyme activity was measured by the detection of CoA-SH by the fluorescent dye 7-(diethylamino)-3-(4'-maleimidylphenyl)-4-methylcoumarin (CPM). In brief, assay buffer (15 μL), acetyl CoA (5 μL) and diluted PCAF (10 μL) were added to all the wells. Dimethylsulfoxide (DMSO, 5 μL) was added to 100% initial activity wells and the background wells, and inhibitor (100 μM, 5 μL) was added to the inhibitor wells. PCAF HAT peptide (20 μL) was added to all the wells except the background wells. The wells were incubated on a shaker for 5 minutes at room temperature and HAT stop reagent (50 μL) was added to all the wells including the background wells. HAT peptide (20 μL) was added to the background wells only. HAT developer (100 μL) was added to all the wells including the background wells and incubated for 20 minutes at room temperature. Then, read the plate using an excitation wavelength of 360–390 nm and an emission wavelength of 450–470 nm. Subtract the fluorescence of the background wells from the fluorescence of the 100% initial activity and the inhibitor wells. The percent inhibition for each sample was determined as follows: [drawing 2]

[3] = tested on: HCT-116 (human colon cancer); assay: SRB cytotoxicity assay, HCT-116; format: cell-based; conditions: read-out: IC50 against HCT-116
Method: as §1, §2, §3, §4

A549 (human lung cancer) = assay: SRB cytotoxicity assay, A549; format: cell-based; conditions: read-out: IC50 against A549
Method: as §1, §2, §3, §4

HSF (normal cell) = assay: SRB cytotoxicity assay, HSF normal cell line; format: cell-based; conditions: read-out: IC50 against HSF
Method: as §1, §2, §3, §4

[4] = tested on: Hep3B (human hepatoma cancer); assay: SRB cytotoxicity assay, Hep3B; format: cell-based; conditions: mean ± standard error, read-out: IC50 against Hep3B
Method: as §1, §2, §3, §4

[5] = tested on: HeLa (human cervical cancer); assay: SRB cytotoxicity assay, HeLa; format: cell-based; conditions: mean ± standard error, read-out: IC50 against HeLa
Method: as §1, §2, §3, §4

[6] = tested on: HT-29 (human colon cancer); assay: SRB cytotoxicity assay, HT-29; format: cell-based; conditions: read-out: IC50 against HT-29
Method: as §1, §2, §3, §4

Caco-2 cell monolayers = assay: Caco-2 cell permeability assay; format: in vitro ADME, human; conditions: Caco-2, apical to basolateral, initial concentration 50 μM; mean ± SD
[7] = tested on: seven human cancer cell lines; assay: SRB cytotoxicity assay, panel of seven cancer cell lines (summary in words); format: cell-based
Method: as §1
Adherent cells at the logarithmic growth phase were detached the by an addition of 3 mL of trypsin-EDTA (1:250) mixture, and they were incubated for 5 min at 37 °C. […]
The SRB assay was carried out as previously described. […] Absorbance was read in a 96-well plate reader at 492 nm subtracting the background measurement at 620 nm. The test optical density (OD) value was defined as the absorbance of each individual well, minus the blank value.

[8] = Homo sapiens, MDA-MB-231, mean ± standard error
[9] = Homo sapiens, HCT-116, mean ± standard error
[10] = Homo sapiens, A549, mean ± standard error
[11] = Homo sapiens, HT-29, mean ± standard error

T1 sequence (Q92831 492-658 limits assumed): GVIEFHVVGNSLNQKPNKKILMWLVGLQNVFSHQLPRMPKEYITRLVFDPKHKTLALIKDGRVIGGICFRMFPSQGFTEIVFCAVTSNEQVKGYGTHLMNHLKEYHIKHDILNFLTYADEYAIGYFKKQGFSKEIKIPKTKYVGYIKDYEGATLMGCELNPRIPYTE

Compound | IC50 ([1]; mean ± standard error) [µM] | IC50 [2] [µM] | PCAF HAT inhibition (%) (PCAF HAT; 100 μM compound) | IC50 ([3]; mean ± standard error) [µM] | IC50 (A549 (human lung cancer); mean ± standard error) [µM] | IC50 (HSF (normal cell)) [µM] | IC50 [4] [µM] | IC50 [5] [µM] | IC50 ([6]; mean ± standard error) [µM] | further results
2-Octanoylamino-1-(4-carboxyphenyl)benzamide [Compound 10] | 51.8 ± 0.68 | 69.5 ± 7.16 | 66 | > 100 | > 100 | > 100 | > 100 | > 100 | > 100 | 
2-Dodecanoylamino-1-(3-carboxyphenyl)benzamide [Compound 15] | > 100 | > 100 | 42 | > 100 | > 100 | > 100 | > 100 | > 100 | > 100 | 
2-Hexadecanoylamino-1-(3-carboxyphenyl)benzamide [Compound 19] | > 100 | 82.6 ± 5.89 |  | 40.3 ± 4.3 | 40.5 ± 3.59 | > 100 | 43.8 ± 5.91 | 36.9 ± 3.76 | 44.8 ± 2.98 | PCAF HAT inhibition (%) (PCAF HAT; 100 μM compound, 100 µM): 61%
2-Octanoylamino-1-(3-carboxyphenyl)benzamide [Compound 11] | > 100 | > 100 |  | > 100 | > 100 | > 100 | > 100 | > 100 | > 100 | PCAF HAT inhibition (%) (PCAF HAT; 100 μM compound, 100 µM): 52%
2-Tetradecanoylamino-1-(4-carboxyphenyl)benzamide [Compound 16] | 79.1 ± 3.27 | 63.08 ± 0.21 | 72 | 43.9 ± 2.39 | 46.2 ± 0.83 | > 100 | 73.3 ± 9.61 | 56.5 ± 0.87 | 54.8 ± 1.05 | Measured Papp (Caco-2 cell monolayers): 68.21 ± 3.56 ×10^−6 cm/s
2-Hexanoylamino-1-(4-carboxyphenyl)benzamide [Compound 8] | > 100 | > 100 | 67 | > 100 | > 100 | > 100 | > 100 |  | > 100 | 
Nc1ccccc1C(=O)O [A, Anthranilic acid, reference compound] |  |  |  |  |  | > 100 |  |  |  | IC50 [1, 8]: > 100 µM; IC50 ([2]; Homo sapiens): > 100 µM; inhibition at 100 µM (PCAF HAT): 34%; IC50 [3, 9]: > 100 µM; IC50 (A549 (human lung cancer); [10]): > 100 µM; cytotoxic activity against cancer cell lines (in words) [7]: inactive against most of cancer cell lines; IC50 ([4]; Homo sapiens, Hep3B): > 100 µM; IC50 ([5]; Homo sapiens, HeLa): > 100 µM; IC50 [6, 11]: > 100 µM
2-Tetradecanoylamino-1-(3-carboxyphenyl)benzamide [Compound 17] | 62.43 ± 0.58 | 55.9 ± 5.09 | 79 | 29.2 ± 3.86 | 32.1 ± 1.36 | > 100 | 57.52 ± 0.26 | 55 ± 3.14 | 54.9 ± 3.49 | Measured Papp (Caco-2 cell monolayers): 71.48 ± 4.67 ×10^−6 cm/s
CCCCCCCCCCCCCCCc1cccc(O)c1C(=O)O [AA, Anacardic acid, reference compound] |  |  |  |  |  | > 100 |  |  |  | IC50 [1, 8]: 44.3 ± 4.2 µM; IC50 ([2]; Homo sapiens): > 100 µM; inhibition at 100 µM (PCAF HAT; 100 μM compound): 68%; IC50 [3, 9]: 96.3 ± 4.33 µM; IC50 (A549 (human lung cancer); [10]): 70.76 ± 0.41 µM; IC50 ([4]; Homo sapiens, Hep3B): > 100 µM; IC50 [6, 11]: 60.4 ± 6.36 µM
2-Dodecanoylamino-1-(4-carboxyphenyl)benzamide [Compound 14] | > 100 | > 100 | 46 | 53.3 ± 2.05 | > 100 | > 100 | > 100 | > 100 | > 100 | 
2-Decanoylamino-1-(4-carboxyphenyl)benzamide [Compound 12] | > 100 | 63.8 ± 2.39 | 55 | > 100 | > 100 | > 100 | > 100 | > 100 | > 100 | 
2-Hexanoylamino-1-(3-carboxyphenyl)benzamide [Compound 9] | > 100 | > 100 |  | > 100 | > 100 | > 100 | > 100 |  | > 100 | 
2-Decanoylamino-1-(3-carboxyphenyl)benzamide [Compound 13] | > 100 | > 100 | 45 | > 100 | > 100 | > 100 | > 100 | > 100 | > 100 | 
